Columns and labels:
GABA-A = assay: Fluridone/bicuculline in vivo GABA-A agonism/antagonism assay; conditions: mice, bicuculline 5 mg/kg alone
MPTP-treated monkeys = conditions: combined with L-Dopa or selective dopamine agonists (D1 or D2); cited from earlier work

With `CN1CCc2cc3c(cc2[C@H]1[C@@H]1OC(=O)c2c1ccc1c2OCO1)OCO3` [bicuculline] the seizures (GABA-A) was “induced immediate seizures” and the Death rate (GABA-A; within ten to twenty second after injection) was 100%.

For `CCn1c(=O)c2c(nc(/C=C/c3ccc(OC)c(OC)c3)n2C)n(CC)c1=O` [KW-6002], the dyskinesia (MPTP-treated monkeys) is given as “does not induce dyskinesia”.

Source: patent US20040117125A1, “Drug discovery method and apparatus” (priority 1999, published 2004)
